How the values were obtained:
[1] = system: bioprinted full thickness skin tissue; assay: Histological analysis of bioprinted skin tissue after irritant treatment (H&E, CK5/IVL, CK10, collagen 3, PCNA, TUNEL); format: cell-based, human; settings: 1% TRITON X-100, 1 hour exposure
From the text: (§1) Bio-ink was generated by a cellular mixture of 100% primary adult human dermal fibroblasts (HDFa) in 8% gelatin (NOVOGEL 2.0) at a concentration of 100 million cells per milliliter. The cell: gelatin ratio was altered to reduce the cellular density of the dermal sheet to better mimic dermal tissue in native skin. Three-dimensional bio-ink constructs were printed by continuous deposition using the NOVOGEN BIOPRINTER platform in a 4 mm×4 mm×0.5 mm base to create a dermal structure resembling a sheet. One tissue construct was printed per transwell in a 6-well plate. The transwell printing surface contained a polytetrafluoroethylene (PTFE) membrane coated with equimolar mixture of types I and III collagen (bovine) with pores 3 μm in size. Epidermal cell paste containing a mixture of 100% primary neonatal human epidermal keratinocytes (HEKn) was then printed on top of the dermal bio-ink. Cell paste was measured post print at 87.1% viable by trypan exclusion assay. Cell numbers in the deposited epidermal layer was estimated at 60,000 cells by cell counting on a Cell-O-Meter. Immediately following the print, constructs were placed at 4° C. for 10 minutes. Cold media was then added to the outer well of the transwell in a volume of 3 ml. The media used for subsequent growth and maintenance of the skin tissue was a 50:50 ratio of HDFa: HEKn media. The initial volume added was sufficient to submerge the structure. All subsequent media changes used warmed media (37° C.) added to the outer well of the transwell and not to the inner basket. Media was changed 48 hours later and reduced to a volume of 1.5 ml per well to bring the structure to an air-liquid interface (ALI). Media and subsequently changed 48 hours after that (day 4) at a volume of 1.5 ml. On day 5, media was changed and further reduced to 1 ml per well and subsequently changed daily. On day 10, skin tissues were subject to a skin irritation test method using 1% TRITON X-100. 1% TRITON X-100 is a known irritant and reference chemical currently used in other 3D skin models. Methods were based on OECD guidelines 439 and 431 for applying human skin models to in vitro skin irritation or corrosion, respectively. On day 10, conditioned media was saved (designated time=0) and 1 ml of fresh media was added to the outer well of the transwell. The printed skin tissue was then treated with 20 μl of PBS as a negative control or with 20 μl of 1% TRITON X-100 as a positive control and known irritant. Test substances were pipetted manually to the apical surface of the tissue. TRITON X-100 was diluted to a 1% aqueous solution in deionized water and sterile filtered through a 20 micron filter before use. Samples were incubated for 30 minutes at 37° C. followed by 30 minutes at room temperature for a total of 60 minutes. Media was saved (designated time=1 hour). Samples were then washed extensively by PBS rinsing. Transwells were then placed in a new 6-well plate with fresh media (1 ml) added to the outer well then placed back into 37° C. overnight. The media was then changed at 24 hours and at 48 hours post treatment. Total media collected included time points=−48, 0, 1, 24, and 48 hours. IL-1α production (R&D Systems) was analyzed in a colorimetric assays per manufacturer's protocol. Media was analyzed for lactate dehydrogenase as a marker for cytotoxicity. IL-1α production was assessed as a complementary endpoint to classic cytotoxicity testing to improve predictability of irritants. Keratinocytes normally produce and release inflammatory cytokine IL-1α in response to chemical or physical stress. At 48 hours post treatment (day 12), tissues were either lysed for RNA extraction and subsequent qPCR analysis, or tested for viability by alamar blue assay then rinsed in PBS and fixed with 2% PFA for histological analysis. Alamar blue (Life Technologies) was added per manufacturer's instructions to media and incubated with tissue constructs (1 ml) at 37° C. for 3 hours. […]

[2] = system: bioprinted full thickness skin tissue; assay: Gene expression (qPCR) analysis of bioprinted skin tissue after irritant treatment; format: cell-based, human; settings: 1% TRITON X-100, 1 hour exposure
From the text: as §1, with “Test substances were pipetted manually to the apical surface of the tissue. TRITON X-100 was diluted to a 1% aqueous solution in deionized water and sterile filtered through a 20 micron filter before use. Samples were incubated for 30 minutes at 37° C. followed by 30 minutes at room temperature for a total of 60 minutes. Media was saved (designated time=1 hour). Samples were then washed extensively by PBS rinsing. Transwells were then placed in a new 6-well plate with fresh media (1 ml) added to the outer well then placed back into 37° C. overnight. The media was then changed at 24 hours and at 48 hours post treatment. Total media collected included time points=−48, 0, 1, 24, and 48 hours.” left out, “irritants.” for “irritants. Keratinocytes normally produce and release inflammatory cytokine IL-1α in response to chemical or physical stress. At 48 hours post treatment (day 12), tissues were either lysed for RNA extraction and subsequent qPCR analysis, or tested for viability by alamar blue assay then rinsed in PBS and fixed with 2% PFA for histological analysis. Alamar blue (Life Technologies) was added per manufacturer's instructions to media and incubated with tissue constructs (1 ml) at 37° C. for 3 hours.”

[3] = 48 hours post treatment (day 12)

TRITON X-100
CK5 positive basal keratinocyte layer [1, 3]: fragmented | Collagen 3 staining compared to the PBS control [1, 3]: reduction in dermal fibroblast function | H&E histology [1, 3]: separation of the epidermal and dermal layers | macroscopic appearance of treated tissues [1, 3]: appeared similar to PBS control tissues macroscopically | proliferation by PCNA staining ([1]; dermal fibroblasts and basal layer, day 12): reduction in proliferation | apoptosis by TUNEL staining ([1]; dermal layer, day 12): increase in apoptosis | CK1 and CK10 gene expression ([2]; 48 hours post exposure): reduced | collagen production of types 1, 3, and 4 collagen (gene expression) ([2]; 48 hours post exposure): reduced | expression of both epidermal and dermal markers ([2]; 48 hours post exposure): dramatically reduces | IL1α gene expression increase in comparison to the PBS control ([2]; 48 hours post treatment): about 3 fold
